PMC4125160, “Neurotoxicity and Mode of Action of N, N-Diethyl-Meta-Toluamide (DEET)” (PLoS ONE, 2014)
Where two headings read alike, the source gives them in different places.

Columns and labels:
[1] = test system: acetylcholinesterase; test: AChE inhibition, Ellman assay, summary statements across enzymes; type: biochemical; settings: concentrations up to 10 mM, all enzyme preparations
Excerpt: In vitro biochemical assays utilized five acetylcholinesterase (AChE) enzymes. Recombinant human AChE (hAChE) was purchased from a commercial source (lyophilized powder, Sigma C1682, St. Louis, MO, USA). Homogenates to prepare Anopheles gambiae AChE (AgAChE) were obtained from the wild type G3 strain and the resistant AKRON strain (BEI Resources; http://www.beiresources.org/). AKRON mosquitoes (from Benin and donated by M. Akogbeto) have both knockdown resistance (kdr) to pyrethroids (L1014F sodium channel mutation) and the G119S AChE mutation (ace-1R), which confers resistance to carbamates, [15]. Both strains were cultured in the Emerging Pathogens Institute, University of Florida, Gainesville, FL, USA from eggs provided by the Center for Disease Control, Atlanta, GA, USA. Homogenates were also used to prepare Aedes aegypti AChE (AeAChE) from mosquitoes provided by the CMAVE, USDA-ARS, Gainesville, FL, USA; Musca domestica AChE (MdAChE) from flies cultured in the Department of Entomology and Nematology, Medical Entomology Laboratory, University of Florida, Gainesville, FL, USA); and Drosophila melanogaster AChE (DmAChE) from flies (Oregon-R strain) cultured in the Emerging Pathogens Institute, University of Florida, Gainesville, FL, USA. Homogenate enzymes were prepared from groups of ten non-blood fed adult female mosquitoes, five whole bodied Drosophila, or three Musca heads homogenized in 1 mL of ice-cold sodium phosphate buffer (0.1 M sodium phosphate, pH 7.8) with an electric motor driven glass tissue homogenizer. The homogenate was centrifuged at 5000×g using a Sorvall Fresco refrigerated centrifuge at 4 °C for 5 minutes. […]
Inhibition of AChE was determined using the Ellman assay and was based on the method outlined in Carlier et al.. […] Changes in absorbance were recorded by a DYNEX Triad spectrophotometer (DYNEX Technologies, Chantilly, VA, USA) at 405 nm. Enzyme concentrations used were within the linear range, therefore eliminating the need for protein quantification.

[2] = target: T1, Anopheles gambiae AChE (AgAChE), wild type G3 strain (Anopheles gambiae, UniProt Q869C3); test: AChE inhibition, Ellman assay; type: biochemical
T1 construct: Homogenate enzymes were prepared from groups of ten non-blood fed adult female mosquitoes; from tissue; host or cells: whole adult female mosquitoes, G3 strain, supernatant of homogenate
Excerpt: (§1) In vitro biochemical assays utilized five acetylcholinesterase (AChE) enzymes. Recombinant human AChE (hAChE) was purchased from a commercial source (lyophilized powder, Sigma C1682, St. Louis, MO, USA). Homogenates to prepare Anopheles gambiae AChE (AgAChE) were obtained from the wild type G3 strain and the resistant AKRON strain (BEI Resources; http://www.beiresources.org/). AKRON mosquitoes (from Benin and donated by M. Akogbeto) have both knockdown resistance (kdr) to pyrethroids (L1014F sodium channel mutation) and the G119S AChE mutation (ace-1R), which confers resistance to carbamates, [15]. Both strains were cultured in the Emerging Pathogens Institute, University of Florida, Gainesville, FL, USA from eggs provided by the Center for Disease Control, Atlanta, GA, USA. Homogenates were also used to prepare Aedes aegypti AChE (AeAChE) from mosquitoes provided by the CMAVE, USDA-ARS, Gainesville, FL, USA; Musca domestica AChE (MdAChE) from flies cultured in the Department of Entomology and Nematology, Medical Entomology Laboratory, University of Florida, Gainesville, FL, USA); and Drosophila melanogaster AChE (DmAChE) from flies (Oregon-R strain) cultured in the Emerging Pathogens Institute, University of Florida, Gainesville, FL, USA. Homogenate enzymes were prepared from groups of ten non-blood fed adult female mosquitoes, five whole bodied Drosophila, or three Musca heads homogenized in 1 mL of ice-cold sodium phosphate buffer (0.1 M sodium phosphate, pH 7.8) with an electric motor driven glass tissue homogenizer. The homogenate was centrifuged at 5000×g using a Sorvall Fresco refrigerated centrifuge at 4 °C for 5 minutes. The supernatant was used as the enzyme source, and all enzyme preparations contained 0.3% (v/v) triton X-100 and 1 mg/ml BSA. Prior to use, the recombinant human enzyme was diluted 500-fold into sodium phosphate buffer containing triton X-100 and 1 mg/ml BSA.
(§2) Inhibition of AChE was determined using the Ellman assay and was based on the method outlined in Carlier et al.. Briefly, enzyme solution (10 µL) was added to each well of a 96-well micro assay plate, along with 20 µL of inhibitor in DMSO/saline suspension, and 150 µL of sodium phosphate buffer. Final concentration of DMSO was 0.1% in all incubations. The plate was incubated at 25 °C for ten minutes. Ellman assay reagents, acetylthiocholine iodide (0.4 mM, final concentration) and 5,5′-dithiobis-(2-nitro)benzoic acid (0.3 mM, final concentration), were prepared fresh and 20 µL was added to the enzyme to initiate the reaction.

[3] = target: T2, Aedes aegypti AChE (AeAChE) (Aedes aegypti, UniProt Q6A2E2); test: AChE inhibition, Ellman assay; type: biochemical
T2 construct: Homogenate enzymes were prepared from groups of ten non-blood fed adult female mosquitoes; from tissue; host or cells: whole adult female mosquitoes, supernatant of homogenate
Excerpt: as §1, §2

[4] = target: T3, Drosophila melanogaster AChE (DmAChE) (Drosophila melanogaster, UniProt P07140); test: AChE inhibition, Ellman assay; type: biochemical; settings: mean, n = 3; read-out: IC50 (95% CI)
T3 construct: five whole bodied Drosophila, or three Musca heads homogenized; from tissue; host or cells: whole Drosophila (Oregon-R), supernatant of homogenate
Excerpt: as §1, §2

[5] = target: T4, Recombinant human AChE (hAChE) (Homo sapiens, UniProt P22303); test: AChE inhibition, Ellman assay; type: biochemical; settings: mean, n = 3; read-out: IC50 (95% CI)
T4 construct: purchased Sigma C1682
Excerpt: as §1
as §2, with “reaction. Changes in absorbance were recorded by a DYNEX Triad spectrophotometer (DYNEX Technologies, Chantilly, VA, USA) at 405 nm. Enzyme concentrations used were within the linear range, therefore eliminating the need for protein quantification.” for “reaction.”

[6] = target: Musca domestica AChE (MdAChE) (Musca domestica, UniProt Q7YWJ9); test: AChE inhibition, Ellman assay; type: biochemical; settings: mean, n = 3; read-out: IC50 (95% CI)
Excerpt: as §1
as §2, with “reaction. Changes in absorbance were recorded by a DYNEX Triad spectrophotometer (DYNEX Technologies, Chantilly, VA, USA) at 405 nm. Enzyme concentrations used were within the linear range, therefore eliminating the need for protein quantification.” for “reaction.”

[7] = target: T5, AKRON AgAChE (G119S AChE mutation) (Anopheles gambiae, UniProt Q869C3, G280S); test: AChE inhibition, Ellman assay; type: biochemical
T5 construct: Homogenate enzymes were prepared from groups of ten non-blood fed adult female mosquitoes; from tissue; host or cells: whole adult female mosquitoes, AKRON strain, supernatant of homogenate
Excerpt: as §1
as §2, with “reaction. Changes in absorbance were recorded by a DYNEX Triad spectrophotometer (DYNEX Technologies, Chantilly, VA, USA) at 405 nm. Enzyme concentrations used were within the linear range, therefore eliminating the need for protein quantification.” for “reaction.”

[8] = test system: housefly larval central nervous system; test: Neurophysiological recordings of CNS nerve discharge in housefly larvae; settings: Musca domestica; transected CNS; value (95% CI); read-out: EC50, excitation of nerve firing
[9] = test system: rat Nav 1.4 channel; parameters: method as in ref 12 = [12]; 12 Scior T , Martinez-Morales E , Cruz S , Salinas-Stefanon E ( 2009 ) In silico modeling of toluene binding site in the pore of voltage-gate sodium channel . J Receptor Ligand Channel Res 2 : 1 – 9 .; settings: in vitro ref 12; cited from earlier work
[10] = test system: neuromuscular junction of third instar Musca domestica larvae; test: Neuromuscular junction recordings of evoked EPSP in housefly larvae; settings: toluene at 5 mM
Protocol: Neuromuscular recordings of the evoked excitatory postsynaptic potential (EPSP) were performed on third instar housefly larvae, essentially as described previously. In short, the maggot was immobilized with pins, and the nervous and musculature systems were exposed. The preparation was then bathed in saline containing: 140 mM NaCl, 0.75 mM CaCl2, 5 mM KCl, 4 mM MgCl2, 5 mM NaHCO3, and 5 mM HEPES (pH = 7.25). The nerves were severed from the base of the CNS, which was removed, and a lateral nerve trunk innervating the longitudinal muscles was drawn into a suction electrode filled with saline. Stimuli were applied at 1 volt and of 0.2 sec duration to elicit a contraction from the longitudinal muscles. The stimulated muscle was then impaled with a recording glass capillary microelectrode filled with 1 M KCl to record effects on the evoked EPSP and membrane potential. Signals from all recordings were amplified and digitized with the use of the MacLab. Chemicals were applied to the preparation directly by hand pipetting 150 µL of solution into the bath volume of 150 µL.

[11] = test system: firefly light organ; test: In vivo assay for effects on firefly light organ; parameters: species or system Photinus pyralis
Protocol: Adult firefly beetles (Photinus sp.) were collected locally (Nashville, TN) and housed in well-ventilated chambers with tree leaves. The animals had free access to 10% sucrose solution. Chemicals were dissolved in absolute ethanol and 1 µL was topically applied directly to the ventral light organ with the use of a manual pipettor. Prior to DEET application, the beetles were immobilized with molten parafilm and were mounted on corrugated cardboard for the duration of the study. Due to the time required for bioactivation of CDM, insects were treated with 1 µL of CDM and were released back into the holding chamber for three hours. After three hours, they were mounted in the previously described manner and monitored for activation of the lantern. Photographs were captured with a handheld camera (Canon PowerShot SX110 IS). Pictures were captured within five minutes, four hours, and 10 minutes post application for DEET, CDM, and propoxur, respectively. DEET- and propoxur-treated insects were monitored for at least 1 hour post exposure to ensure the response was not slow acting. The original photographs were cropped and background shadows were enhanced to increase detail of the insect using Adobe Photoshop PS5 (Adobe Systems, San Jose, CA, USA). The color or brightness of the light organ was not manipulated in any way during post-processing of the image.

[12] = test system: octopamine receptors of Sf21 cells; test: Calcium fluorescence assay in Sf21 cells; type: cell-based
Protocol: The Sf21 insect cell line was obtained from a commercial supplier (Invitrogen, Carlsbad, CA, USA) and maintained in log phase culture in Trichoplusia ni Medium-Formulation Hink (TNM-FH) from Sigma-Aldrich (St. Louis, MO, USA), supplemented with 10% fetal bovine serum and 100 U/ml penicillin and streptomycin (Sigma-Aldrich). Cells were cultured in a non-humidified environment and maintained at 27°C. Sf21 cells were passaged every 3–5 days according to manufacturer's instructions, and maintained for about 30 passes before being replaced by fresh cells.
Sf21 cells were plated into 96-well black-wall, clear bottom plates 24 h before calcium fluorescence assay. […] The octopamine receptor antagonist phentolamine (100 µM) was co-incubated with cells for 1 h before drug challenge. Phentolamine, octopamine, and DEET were dissolved in water, while propoxur was dissolved in 100% DMSO to make a stock solution, and in the assay, DMSO was kept to 0.1%. The experiment was repeated in triplicate with different plates of cells to obtain means and SEMs for each experimental condition.

[13] = test system: housefly larval central nervous system; test: Neurophysiological recordings of CNS nerve discharge in housefly larvae; parameters: species or system Musca domestica; settings: for EC50: Musca domestica
Protocol: Neurophysiological recordings were performed on the central and peripheral nervous systems of larval Musca domestica. Glass pipette electrodes were pulled from borosilicate glass capillaries on a P-1000 Flaming/Brown micropipette puller (Sutter Instrument, Novato CA, USA). For CNS recordings, it was first excised from the larvae and placed in a separate dish with physiological saline (200 µL) containing: 157 mM NaCl, 3 mM KCl, 2 mM CaCl2, and 4 mM HEPES, pH = 7.25. The CNS was manually transected posterior to the cerebral lobes to disrupt the blood-brain barrier and enhance chemical penetration. Any convenient peripheral nerve trunks were pulled into a recording suction electrode. Amplification and digitization of descending electrical activity originating from the CNS were converted on-line into a rate plot, expressed in Hz (MacLab analog to digital converter hardware and LabChart 7 software, ADInstruments, Colorado Springs, CO, USA). […] After a baseline was established, the CNS preparation was directly exposed to test compound by adding 200 µL of solution to the bath containing 200 µL of saline. The final concentration of solvent in the bath was 0.1% DMSO. Each concentration was recorded for 3–5 min prior to the addition of the next drug concentration. […] Each drug concentration was replicated 3-5 times.

[14] = mean, n = 3, read-out: IC50 (95% CI)

Cc1ccccc1 [Toluene, toluene]
AChE inhibition in words [1]: inactive
IC50 [2]: > 10 mM
IC50 [3]: > 10 mM
IC50 [4]: > 10 mM
IC50 [5]: > 10 mM
IC50 [6]: > 10 mM
IC50 [7]: > 10 mM
EC50 [8]: 1 mM
concentration blocking channels [9]: 3 mM
effect on evoked EPSP in words [10]: excitatory

Cc1cc(Cl)ccc1N=CN(C)C [CDM, chlordimeform]
lantern illumination ([11]; 1 µg topically on light organ): incomplete activation of the light organ
duration of glow of the entire lantern ([11]; 5 µg): approximately four
lantern illumination ([11]; 5 µg topically on light organ): bright, constant glow of the entire lantern

Cc1ccc(N(CC2=NCCN2)c2cccc(O)c2)cc1 [phentolamine]
effect on DEET- and octopamine-mediated activation of calcium fluorescence ([12]; 100 µM phentolamine pre-exposure 1 h): abolished
block of DEET-mediated neuroexcitation ([13]; 100 µM phentolamine, DEET up to 500 µM): completely blocked
block of octopamine-mediated neuroexcitation ([13]; 100 µM phentolamine, octopamine up to 3 mM): completely blocked
decline of maximal firing compared to propoxur alone ([13]; 100 µM phentolamine, propoxur 1 µM, not statistically significant): 21%
effect on neuroexcitation by propoxur ([13]; 100 µM phentolamine, propoxur below 1 µM): no effect
effect on 4-AP mediated neuroexcitation ([13]; phentolamine): no effect

CCN(CC)CC(=O)Nc1c(C)cccc1C [Lidocaine, lidocaine]
IC50 [2, 14]: > 10 mM
IC50 [3, 14]: > 10 mM
IC50 [4]: 9.6 mM
IC50 [6]: 4.9 mM
IC50 [7]: > 10 mM
effect on evoked EPSP in words [10]: antagonist

Nc1ccncc1 [4-AP, 4-aminopyridine]
increase of maximal firing frequency above control levels [13]: 6 fold
EC50 ([13]; Fig. 3D, firing declined at concentrations >1 mM, read-out: EC50, neuroexcitation): 0.013 mM

NCC(O)c1ccc(O)cc1 (centres unmarked) [Octopamine, octopamine]
increase in calcium fluorescence ([12]; 100 µM, over control cells): ca. 50%
EC50 ([13]; Fig. 3B, read-out: excitatory EC50): 0.11 mM
